Results from paper PMC4349585 (Journal of medicinal chemistry, 2015).

Test system: PC-3 cells
Assay: Cofilin phosphorylation Western blot in PC-3 cells stimulated by HGF
Assay type: cell-based
Details: 50 nM

SMILES: Cc1c[nH]c2ncnc(-c3ccc(NC(=O)N(CCO)c4ccccc4)cc3)c12 [Compound 18b, 1-(2-Hydroxyethyl)-3-(4-(5-methyl-7H-pyrrolo[2,3-d]pyrimidin-4-yl)phenyl)-1-phenylurea]
- inhibition of cofilin phosphorylation in PC-3 cells (Western blot): significant inhibition
